Results published in patent publication US8093296B2 (Mutual Pharmaceutical Company, Inc., priority 2008, dated 2012).
“Also recorded” adds a separate entry of the source. Where two headings read alike, the source gives them in different places.

Columns and labels:
[1] = colchicine 0.6 mg twice a day, two randomized clinical trials, patients initiating urate lowering therapy; cited from earlier work
[2] = Colchicine elimination half-life after multiple oral doses in young healthy volunteers; format: in vivo; settings: human, plasma; multiple oral doses 0.6 mg twice daily, young healthy volunteers (mean age 25 to 28 years)
[3] = Pharmacokinetic study in healthy adults of single vs. multiple oral doses of colchicine tablets (Example 1); format: in vivo, human; settings: for concentration at 25 day: 0.6 mg;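 as to all read-outs here: each subject received both dosing periods, single and repeated oral dosing, with a 14-day washout interval between periods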
Method: Subjects received a light breakfast served 60 minutes following dose administration in the morning and the evening dose was administered 90 minutes after an evening meal on Days 15 through 24 only. […] Study periods were separated by a 14-day washout. Following the single dose and the last dose of the multiple dose regimen (beginning on the mornings of Day 1 and Day 25, respectively), blood samples were collected (6 mL each) from each subject within 1 hour prior to dosing and after dose administration at study hours 0.5, 1, 1.5, 2, 3, 4, 6, 8, 10, 12, and 24 (while confined) and 36, 48, 72, and 96 (on an outpatient basis).

[4] = colchicine administration; cited from earlier work
clinical = settings: human, in vivo, 0.6 mg
Method: A single-center, open-label, one sequence, two-period study was carried out in 23 healthy subjects. […] After completing a 21-day washout period, all subjects received 250 mg of clarithromycin administered twice daily for 7 days (Days 22 through 29), a sufficient dose and duration to inhibit CYP3A4 and Pgp.

CYP2C9/19 = settings: Dvorak 2000, preliminary; 1 and 10 μM colchicine; cited from earlier work
[5] = cited from earlier work
[6] = mean, multiple (b.i.d.) oral doses 0.6 mg x 10 days, Day 25, healthy adults N=13
[7] = mean, single oral dose 0.6 mg, healthy adults N=13
[8] = median, multiple (b.i.d.) oral doses 0.6 mg x 10 days, Day 25, healthy adults N=13
[9] = median, single oral dose 0.6 mg, healthy adults N=13
[10] = co-administration of clarithromycin vs colchicine alone
[11] = colchicine 0.6 mg with steady-state clarithromycin vs colchicine alone
[12] = mean, Day 1, single-dose colchicine 0.6 mg alone, healthy adults n=23

In the case of `COc1cc2c(c(OC)c1OC)-c1ccc(OC)c(=O)cc1[C@@H](NC(C)=O)CC2` [Colchicine, (−)-N-[(7S,12aS)-1,2,3,10-tetramethoxy-9-oxo-5,6,7,9-tetrahydrobenzo[a]heptalen-7-yl]-acetamide], the “frequency of gout flares” value [1] is given as “decreased the frequency of gout flares”, the half-life [2] is given as 1600 to 1870 min and the “attainment of steady state (trough plasma concentrations)” value ([3]; 0.6 mg b.i.d., most subjects) is given as “by approximately the eighth day of dosing”. The “plasma concentrations 24 hours post-dose” value ([3]; after a single 0.6 mg dose) was “no longer quantifiable 24 hours post-dose in all but 1 subject; also recorded: not detectable by 24 hours post-dose”, the elimination half-life ([3]; calculated following a single oral dose, stated not an accurate estimate) was “approximately 5 hours” and the concentration at 25 day ([3]; human, in vivo, Day 25, read-out: mean Cmin concentration) was 0.907 ng/mL. For the same compound, the concentration at 25 day ([3]; human, in vivo, po, mean, multiple (b.i.d.) oral doses 0.6 mg x 10 days, Day 25, healthy adults N=13, read-out: Cmin) was 0.907 ng/mL, the concentration at 25 day ([3]; human, in vivo, po, median, multiple (b.i.d.) oral doses 0.6 mg x 10 days, Day 25, healthy adults N=13, read-out: Cave) was 1.19 ng/mL and the concentration at 25 day ([3]; human, in vivo, po, median, multiple (b.i.d.) oral doses 0.6 mg x 10 days, Day 25, healthy adults N=13, read-out: Cmin) was 0.903 ng/mL. The Vd/F ([3]; human, in vivo, mean (% CV), 0.6-mg single dose, Day 1, N=13) was 540 L, the AUC0-τ [3, 6] was 29.05623 ng·h/mL and the Cave [3, 6] was 1210.68 pg/mL. For the same compound, the Kel [3, 6] was 0.03 h⁻¹, the AUC0-inf [3, 7] was 12.2819 ng·h/mL and the AUC0-t [3, 7] was 10.50854 ng·h/mL. The Cmax [3, 7] was 2470.77 pg/mL, the Kel [3, 7] was 0.1829 h⁻¹ and the AUC0-inf [3, 8] was 54.11343 ng·h/mL. It also gave an AUC0-τ [3, 8] of 28.45215 ng·h/mL, a Kel [3, 8] of 0.03 h⁻¹ and a T1/2 [3, 8] of 26.51 h. For the same compound, the AUC0-t [3, 9] was 10.5609 ng·h/mL, the Kel [3, 9] was 0.1992 h⁻¹ and the “secondary colchicine peak in individual subject data” value ([3]; single dose or multiple dosing) was “no subject experienced a secondary colchicine peak”. The “Cmin prior to morning dose higher than Cmin prior to evening dose” value ([3]; steady state, Day 23 and Day 24) was “approximately 12%”, the “FMF patients that do not show a beneficial response” value [4] was 5-10% and the AUC0-inf (clinical) was 16 ng·h/mL. The AUC0-t (clinical) was 12 ng·h/mL, the Vd/F (clinical) was 432 L and the “decrease in apparent clearance (CL/F) of colchicine” value [10] was 75%. The “increase in plasma elimination half-life (t1/2) of colchicine” value [10] was 233%, the “increase in mean colchicine AUC0-t” value [11] was 250% and the “increase in mean colchicine Cmax” value [11] was 167%. For the same compound, the CL/F [12] was 46.8 L/h, the Cmax [12] was 3 ng/mL and the Ke [12] was 0.132 h⁻¹. The t1/2 [12] was 9 h and the “CYP2C9/19 protein levels (immunoblotting)” value (CYP2C9/19) was “appeared to decrease”.
For `CC[C@H]1OC(=O)[C@H](C)[C@@H](O[C@H]2C[C@@](C)(OC)[C@@H](O)[C@H](C)O2)[C@H](C)[C@@H](O[C@@H]2O[C@H](C)C[C@H](N(C)C)[C@H]2O)[C@](C)(OC)C[C@@H](C)C(=O)[C@H](C)[C@@H](O)[C@]1(C)O` [Clarithromycin], the “oral dose excreted in feces” value ([5]; in vivo, po) is listed as “About 40%”, the “dose excreted as unchanged drug in urine” value ([5]; oral 250 mg every 12 hours) is listed as “Approximately 20%” and the “dose excreted as unchanged drug in urine” value ([5]; oral 500 mg every 12 hours) is listed as about 30%. The absolute bioavailability ([5]; oral administration) was “approximately 50%” and the “increase of peak concentration by food” value ([5]; with food) was “about 24%”.
With `COc1cc2c(c(OC)c1O)-c1ccc(OC)c(=O)cc1[C@@H](NC(C)=O)CC2` [2-DMC, 2-O-demethylcolchicine] the metabolite plasma concentrations ([3]; after colchicine 0.6 mg single and multiple doses, LOQ 0.2 ng/mL) was under 0.2 ng/mL.
In the case of `COc1c(O)cc2c(c1OC)-c1ccc(OC)c(=O)cc1[C@@H](NC(C)=O)CC2` [3-DMC, 3-O-demethylcolchciine], the “detectable metabolite plasma concentration” value ([3]; after colchicine 0.6 mg single and multiple doses, 13 subjects) is given as “only one sample from 1 subject (of 13 subjects) had a detectable” and the “CYP2C9/19 protein levels (immunoblotting)” value (CYP2C9/19) is given as “decrease”.
